Assay results from ChEMBL document CHEMBL4354827, “Discovery of Novel, Potent, Brain-Permeable, and Orally Efficacious Positive Allosteric Modulator of α7 Nicotinic Acetylcholine Receptor [4-(5-(4-Chlorophenyl)-4-methyl-2-propionylthiophen-3-yl)benzenesulfonamide]: Structure-Activity Relationship and Preclinical Characterization” (J Med Chem, 2020).

Experiments:
[1] = target: Neuronal acetylcholine receptor subunit alpha-7 (Homo sapiens, UniProt P36544); assay: Positive allosteric modulatory activity against alpha7 nAChR in human IMR-32 cells assessed as potentiation of PNU-282987-induced Ca2+ […] at 1 uM by FLIPR assay relative to control; type: cell-based
[2] = Drug metabolism in rat liver microsomes assessed as metabolic rate at 1 uM preincubated for 5 mins followed by NADPH addition after 30 mins by LC-MS/MS analysis; type: ADME, Microsome; conditions: 0.5 h
[3] = Metabolic stability in monkey liver microsomes assessed as compound remaining at 1 uM preincubated for 5 mins followed by NADPH addition and measured after 30 mins by LC-MS/MS analysis; type: ADME, Macaca mulatta, Microsome; conditions: rhesus monkey, read-out: Stability
[4] = AUClast in Beagle dog at 1 mg/kg, iv after 0.083 to 144 hrs by LC-MS/MS analysis; type: ADME, organism-based, Canis lupus familiaris; set-up: dose 1 mg/kg, time 0.083-144 hr, route intravenous; conditions: in vivo
[5] = AUClast in Beagle dog at 10 mg/kg, po after 0.25 to 144 hrs by LC-MS/MS analysis; type: ADME, organism-based, Canis lupus familiaris; set-up: time upper 144 hr, dose 10 mg/kg, time lower 0.25 hr, route oral; conditions: in vivo
[6] = AUClast in BALB/c mouse at 1 mg/kg, iv after 0.083 to 144 hrs by LC-MS/MS analysis; type: ADME, organism-based; set-up: dose 1 mg/kg, time upper 144 hr, time lower 0.083 hr, route intravenous; conditions: in vivo
[7] = AUClast in BALB/c mouse at 10 mg/kg, po after 0.25 to 144 hrs by LC-MS/MS analysis; type: ADME, organism-based; set-up: dose 10 mg/kg, time upper 144 hr, time lower 0.25 hr, route oral; conditions: in vivo
[8] = Cmax in Wistar rat at 10 mg/kg, po after 0.25 to 144 hrs by LC-MS/MS analysis; type: ADME, organism-based; set-up: dose 10 mg/kg, route oral; conditions: in vivo
[9] = Tmax in BALB/c mouse at 10 mg/kg, po after 0.25 to 144 hrs by LC-MS/MS analysis; type: ADME, organism-based; conditions: in vivo
[10] = Half life in BALB/c mouse at 1 mg/kg, iv after 0.083 to 144 hrs by LC-MS/MS analysis; type: ADME, organism-based; conditions: in vivo
[11] = Drug concentration in Wistar rat plasma at 10 mg/kg, po after 24 hrs by LC-MS/MS analysis; type: ADME, organism-based
[12] = Drug concentration in Wistar rat brain at 10 mg/kg, po after 1 hr by LC-MS/MS analysis; type: ADME, organism-based; conditions: read-out: Drug uptake
[13] = Drug concentration in Wistar rat brain at 10 mg/kg, po after 4 hrs by LC-MS/MS analysis; type: ADME, organism-based; conditions: read-out: Drug uptake
[14] = Brain to plasma permeability coefficient, Kp in Wistar rat at 10 mg/kg, po after 24 hrs by LC-MS/MS analysis; type: ADME, organism-based
[15] = Unbound brain-to-plasma concentration ratio in Wistar rat at 10 mg/kg, po after 48 hrs by LC-MS/MS analysis; type: ADME, organism-based; conditions: read-out: K(p,uu,brain)
Cytochrome P450 3A4 = Cytochrome P450 3A4 (Homo sapiens, UniProt P08684); assay: Inhibition of CYP3A4 (unknown origin) up to 10 uM; type: ADME
Cytochrome P450 2B6 = target: T1, Cytochrome P450 2B6 (Homo sapiens, UniProt P20813); assay: Inhibition of CYP2B6 (unknown origin) up to 10 uM; type: ADME
T1 sequence (P20813 whole entry): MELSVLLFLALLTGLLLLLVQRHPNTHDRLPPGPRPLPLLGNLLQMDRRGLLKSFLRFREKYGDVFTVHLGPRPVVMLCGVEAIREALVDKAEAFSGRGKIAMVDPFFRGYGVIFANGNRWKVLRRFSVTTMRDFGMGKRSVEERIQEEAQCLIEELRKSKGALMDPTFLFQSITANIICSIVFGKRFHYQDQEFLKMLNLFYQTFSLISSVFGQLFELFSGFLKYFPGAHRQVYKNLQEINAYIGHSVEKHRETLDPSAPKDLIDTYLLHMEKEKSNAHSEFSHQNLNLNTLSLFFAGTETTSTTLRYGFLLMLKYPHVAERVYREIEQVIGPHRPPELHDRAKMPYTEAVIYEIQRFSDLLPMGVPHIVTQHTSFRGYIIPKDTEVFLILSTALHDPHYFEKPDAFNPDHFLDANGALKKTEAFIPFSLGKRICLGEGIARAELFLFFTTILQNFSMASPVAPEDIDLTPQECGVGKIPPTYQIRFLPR

Rattus norvegicus [16] = assay: Memory enhancement effect in scopolamine-induced Wistar rat model of amnesia assessed as exploration time for familiar object in retention trial at 0.15 mg/kg, po administered as single dose and measured on day 9 by novel object recognition test (reference value: 8.59 sec); type: functional
Rattus norvegicus [17] = assay: Memory enhancement effect in scopolamine-induced Wistar rat model of amnesia assessed as exploration time for familiar object in retention trial at 0.05 mg/kg, po administered as single dose and measured on day 9 by novel object recognition test (reference value: 8.59 sec); type: functional
Rattus norvegicus [18] = assay: Memory enhancement effect in scopolamine-induced Wistar rat model of amnesia assessed as exploration time for familiar object in retention trial at 0.5 mg/kg, po administered as single dose and measured on day 9 by novel object recognition test (reference value: 8.59 sec); type: functional
Rattus norvegicus [19] = assay: Memory enhancement effect in scopolamine-induced Wistar rat model of amnesia assessed as increase in novel object discrimination index at 0.05 mg/kg, po administered as single dose and measured on day 9 by novel object recognition test (reference value: 0.21); type: functional
Rattus norvegicus [20] = assay: Memory enhancement effect in time-delay induced Wistar rat model of amnesia assessed as exploration time for object2 at 3 mg/kg, po administered as single dose after acquisition trial by novel object recognition test (reference value: 21.07 sec); type: functional
Rattus norvegicus [21] = assay: Memory enhancement effect in time-delay induced Wistar rat model of amnesia assessed as exploration time for novel object in retention trial at 0.05 mg/kg, po for 7 days and measured on day 8 by novel object recognition test (reference value: 15.37 sec); type: functional
Rattus norvegicus [22] = assay: Memory enhancement effect in time-delay induced Wistar rat model of amnesia assessed as exploration time for object2 in acquisition trial at 0.15 mg/kg, po for 7 days and measured on day 8 by novel object recognition test (reference value: 11.76 sec); type: functional
Rattus norvegicus [23] = assay: Memory enhancement effect in time-delay induced Wistar rat model of amnesia assessed as exploration time for familiar object in retention trial at 0.15 mg/kg, po for 7 days and measured on day 8 by novel object recognition test (reference value: 10.20 sec); type: functional
[24] = Drug level in Wistar rat plasma at 0.15 mg/kg, po; type: ADME, organism-based; conditions: in vivo
[25] = Drug level in Wistar rat plasma at 0.5 mg/kg, po; type: ADME, organism-based; conditions: in vivo
Rattus norvegicus [26] = assay: Memory enhancement effect in scopolamine-induced Wistar rat model of amnesia assessed as exploration time for object1 in acquisition trial at 0.15 mg/kg, po for 7 days and measured on day 8 by novel object recognition test (reference value: 16.11 sec); type: functional
Rattus norvegicus [27] = assay: Improvement in social recognition scopolamine-induced Sprague-Dawley rat model of amnesia assessed as increase in reduction in social investigation time at 1 mg/kg, po administered as single dose prior to 1 hr training and measured after 30 mins (reference value: 9.81%); type: functional; set-up: scale not given: the % may be the effect or the level left
[28] = Drug level in Sprague-Dawley rat plasma at 0.05 mg/kg, po for 7 days; type: ADME, organism-based
[29] = Drug level in Sprague-Dawley rat plasma at 0.5 mg/kg, po for 7 days; type: ADME, organism-based

Sequence of Neuronal acetylcholine receptor subunit alpha-7 (P36544 whole entry): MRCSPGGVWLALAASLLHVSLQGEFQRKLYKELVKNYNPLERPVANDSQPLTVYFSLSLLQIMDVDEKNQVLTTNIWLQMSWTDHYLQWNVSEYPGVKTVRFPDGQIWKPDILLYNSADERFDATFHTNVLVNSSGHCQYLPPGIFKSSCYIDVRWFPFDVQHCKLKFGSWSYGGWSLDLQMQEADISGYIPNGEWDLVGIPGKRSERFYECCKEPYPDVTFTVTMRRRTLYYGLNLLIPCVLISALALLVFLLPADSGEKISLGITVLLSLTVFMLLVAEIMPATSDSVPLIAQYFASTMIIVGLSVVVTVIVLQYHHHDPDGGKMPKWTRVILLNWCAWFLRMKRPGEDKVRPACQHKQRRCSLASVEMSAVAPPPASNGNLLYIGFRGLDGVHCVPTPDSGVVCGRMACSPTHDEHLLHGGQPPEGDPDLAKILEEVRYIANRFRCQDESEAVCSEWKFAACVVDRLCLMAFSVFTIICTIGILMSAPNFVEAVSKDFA
Sequence of Cytochrome P450 3A4 (P08684 whole entry): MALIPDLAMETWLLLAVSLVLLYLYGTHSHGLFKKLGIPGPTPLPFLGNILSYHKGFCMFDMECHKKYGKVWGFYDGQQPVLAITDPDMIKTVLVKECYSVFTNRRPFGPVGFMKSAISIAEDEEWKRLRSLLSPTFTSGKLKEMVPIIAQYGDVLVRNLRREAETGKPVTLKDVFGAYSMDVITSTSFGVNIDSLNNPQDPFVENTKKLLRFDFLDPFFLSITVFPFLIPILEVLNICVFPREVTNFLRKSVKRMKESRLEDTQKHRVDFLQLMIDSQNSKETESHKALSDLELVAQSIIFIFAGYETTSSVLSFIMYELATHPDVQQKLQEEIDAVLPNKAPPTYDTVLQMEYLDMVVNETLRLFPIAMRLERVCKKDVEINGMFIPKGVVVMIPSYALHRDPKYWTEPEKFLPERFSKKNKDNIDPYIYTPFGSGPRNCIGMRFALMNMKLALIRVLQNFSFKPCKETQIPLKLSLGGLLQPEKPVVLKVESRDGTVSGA

Q: Which results are given for `CCC(=O)c1sc(-c2ccc(Cl)cc2)c(C)c1-c1ccc(S(N)(=O)=O)cc1`?
A: fold change (FC) [1]: 22; Drug metabolism [2]: 0.01 nmol/min/mg; remaining at 0.5 h, 1 µM [3]: 79%; AUC(0-t) [4]: 47 µM·h; AUC(0-t) [5]: 282 µM·h; AUC(0-t) [6]: 11 µM·h; AUC(0-t) [7]: 63 µM·h; Cmax [8]: 4100 nM; Tmax [9]: 4 h; half-life [10]: 14 h; concentration at 24 h [11]: 740 nM; concentration at 1 h [12]: 4030 nM; concentration at 4 h [13]: 9220 nM; Kp at 24 h [14]: 8.85; Kp uu at 48 h [15]: 1.15; inhibition (INH) (Cytochrome P450 3A4): Not Active; inhibition (INH) (Cytochrome P450 2B6): Not Active; Time (Rattus norvegicus [16]): 4.86 s; Time (Rattus norvegicus [17]): 8.03 s; Time (Rattus norvegicus [18]): 6.63 s; Activity_index (Rattus norvegicus [19]): 0.3; Time (Rattus norvegicus [20]): 21.46 s; Time (Rattus norvegicus [21]): 13.91 s; Time (Rattus norvegicus [22]): 13.58 s; Time (Rattus norvegicus [23]): 3.79 s; concentration [24]: 70 nM; concentration [25]: 270 nM; Time (Rattus norvegicus [26]): 14.08 s; Activity (Rattus norvegicus [27]): 48.49%; concentration at 168 h [28]: 130 nM; concentration at 168 h [29]: 1120 nM
